{
  "source": "patent US20070048385A1",
  "about": "“Microcapsules by coacervation containing a pharmaceutical incorporated in the coating polymer” (priority 2003, published 2007)",
  "key": {"[1]": {"assay": "Dissolution test at pH 6.8 according to USP 26", "type": "physicochemical", "protocol": "A dissolution test is carried out on the microcapsules thus obtained comparing them with anhydrous theophylline in crystalline form.\nThe dissolution test was performed according to USP 26.\nA dissolution test is carried out on the microcapsules obtained in Examples 5 and 6 according to the method previously described for Example 4\nDissolution test was performed according to USP 26\nA dissolution test is carried out on the microcapsules thus obtained compared to fluoxetine raw material."}, "[2]": {"assay": "Dissolution test at pH 1.2 according to USP 26", "type": "physicochemical", "settings": "caffeine", "protocol": "The microcapsules obtained, when analysed with an electronic microscope (FIG. 3), show a distribution of the particles of the active principle within the polymeric membrane in the form of solid particles that are prevalently disposed at the interface between the polymer and the core. […] Dissolution test was performed according to USP 26."}},
  "data": [
    {"smiles": "Cn1c(=O)c2[nH]cnc2n(C)c1=O", "note": "[Anhydrous Theophylline]", "values": [
      {"measurement": "Dissolution % at pH 6.8, 5 min", "setting": "[1]; theophylline", "result": 65, "unit": "%"},
      {"measurement": "Dissolution % at pH 6.8, 10 min", "setting": "[1]; theophylline, T2 second head", "result": 100, "unit": "%"},
      {"measurement": "Dissolution % at pH 6.8, 15 min", "setting": "[1]; 15 min, theophylline", "result": 100, "unit": "%"}
    ]},
    {"smiles": "Cn1c(=O)c2c(ncn2C)n(C)c1=O", "note": "[Caffeine]", "values": [
      {"measurement": "Dissolution % at pH 1.2, 60 min", "setting": "[2]", "result": 100, "unit": "%"}
    ]},
    {"smiles": "CNCCC(Oc1ccc(C(F)(F)F)cc1)c1ccccc1", "note": "(stereo not shown) [Fluoxetine]", "values": [
      {"measurement": "Dissolution % at pH 6.8, 5 min", "setting": "[1]; fluoxetine", "result": 55, "unit": "%"},
      {"measurement": "Dissolution % at pH 6.8, 10 min", "setting": "[1]; fluoxetine", "result": 75, "unit": "%"},
      {"measurement": "Dissolution % at pH 6.8, 20 min", "setting": "[1]; 20 min, fluoxetine", "result": 100, "unit": "%"}
    ]}
  ]
}
